The record followed here is ChEMBL document CHEMBL5038588 (J Med Chem, 2021).

The subject of data set [1] is K562. The experiment in a line: cells. Particulars: Homo sapiens, K562, 72 h.
For data set [2], the system named is BaF3. Kind of data set: cells. Conditions: Mus musculus, BaF3, 48 h.
The subject of the next data set is KU812 cell line. Kind of data set: Cytotoxicity against human KU812 cells assessed as inhibition of cell growth measured after 72 hrs by MTT assay. It is filed as functional, cell-based. Particulars: KU812, 72 h. In general terms: Formazan colour is commonly taken as a measure of viable cells.
The test system of a further data set is Jurkat. Kind of data set: Cytotoxicity against human Jurkat cells assessed as inhibition of cell growth measured after 72 hrs by MTT assay. It is filed as functional, cell-based.
The next data set relates to U-937. The experiment in a line: Cytotoxicity against human U-937 cells assessed as inhibition of cell growth measured after 72 hrs by MTT assay. It is filed as functional, cell-based. Particulars: U-937, 72 h.
Data set [3] deals with BaF3. Kind of data set: cells. Conditions: Mus musculus, BaF3, 72 h.
For data set [4], the system named is BaF3. Kind of data set: Inhibition of cell proliferation in mouse BaF3 cells expressing BCR-ABL T315I mutant assessed as cell viability at 100 uM measured after 48 hrs by trypan blue based assay (RVB=100%). It counts as functional. Conditions: read-out: Activity.
The nature of data set [5]: AUC (0 to infinity) in ICR mouse at 5 mg/kg, iv measured upto 24 hrs by LC/MS/MS analysis. It is filed as ADME, organism-based. Also noted: route intravenous, dose 5 mg/kg, time <=24. Conditions: in vivo.
A short description of data set [6]: Cmax in ICR mouse at 5 mg/kg, iv measured upto 24 hrs by LC/MS/MS analysis. It is filed as ADME, organism-based. The arrangement: route intravenous, dose 5 mg/kg, time <=24. Particulars: in vivo.
A short description of data set [7]: Half life in ICR mouse at 15 mg/kg, po measured upto 24 hrs by LC/MS/MS analysis. It is filed as ADME, organism-based. Particulars: in vivo.
A short description of data set [8]: Tmax in ICR mouse at 5 mg/kg, iv measured upto 24 hrs by LC/MS/MS analysis. It counts as ADME, organism-based. Conditions: in vivo.
Data set [9] is described as follows: Clearance in ICR mouse at 5 mg/kg, iv measured upto 24 hrs by LC/MS/MS analysis. It counts as ADME, organism-based. Particulars: in vivo.
The test system of data set [10] is BaF3. The experiment in a line: animal or person. Particulars: Mus musculus, BaF3, po, 360 h, read-out: TGI.
The nature of data set [11]: AUC (0 to t) in ICR mouse at 5 mg/kg, iv measured upto 24 hrs by LC/MS/MS analysis. The arrangement: route intravenous, dose 5 mg/kg, time <=24. It is filed as ADME, organism-based. Conditions: in vivo.
Data set [12] can be described thus: MRT in ICR mouse at 5 mg/kg, iv measured upto 24 hrs by LC/MS/MS analysis. It counts as ADME, organism-based. Conditions: in vivo.
Data set [13] is described as follows: MRT in ICR mouse at 15 mg/kg, po measured upto 24 hrs by LC/MS/MS analysis. Conditions: in vivo. It is filed as ADME, organism-based.
Data set [14] in a line: AUC (0 to t) in ICR mouse at 15 mg/kg, po measured upto 24 hrs by LC/MS/MS analysis. It is filed as ADME, organism-based. The arrangement: route oral, dose 15 mg/kg, time <=24. Particulars: in vivo.
Data set [15] in a line: Half life in ICR mouse at 5 mg/kg, iv measured upto 24 hrs by LC/MS/MS analysis. It is filed as ADME, organism-based. Particulars: in vivo.
Data set [16] in a line: Cmax in ICR mouse at 15 mg/kg, po measured upto 24 hrs by LC/MS/MS analysis. The arrangement: route oral, dose 15 mg/kg, time <=24. Particulars: in vivo. It is filed as ADME, organism-based.
A short description of data set [17]: Volume of distribution at steady state in ICR mouse at 5 mg/kg, iv measured upto 24 hrs by LC/MS/MS analysis. It is filed as ADME, organism-based. Particulars: in vivo, read-out: Vdss.
The test system of data set [18] is K562. Conditions: Homo sapiens.
Data set [19] in a line: AUC (0 to infinity) in ICR mouse at 15 mg/kg, po measured upto 24 hrs by LC/MS/MS analysis. It is filed as ADME, organism-based. The arrangement: route oral, dose 15 mg/kg, time <=24. Conditions: in vivo.
Data set [20] is described as follows: Oral bioavailability in ICR mouse at 15 mg/kg measured upto 24 hrs by LC/MS/MS analysis. It is filed as ADME, organism-based. Particulars: in vivo.
A short description of data set [21]: Tmax in ICR mouse at 15 mg/kg, po measured upto 24 hrs by LC/MS/MS analysis. Conditions: in vivo. It is filed as ADME, organism-based.
Data set [22] in a line: Toxicity in BALB/c nude mouse xenografted with BaF3 cells expressing BCR-ABL T315I mutant assessed as effect on body weight at 2.5 to 10 mg/kg, po administered once daily for 15 days. It counts as organism-based. Conditions: in vivo, 360 h, dose 2.5-10 mg/kg, time 15 day.

A word on the IC50: it is the concentration at which inhibition is half-maximal. Consider `Cc1cn(-c2cc(NC(=O)c3ccc(C)c(Nc4nccc(-c5cccnc5)n4)c3)cc(C(F)(F)F)c2)cn1` [NILOTINIB], for which the IC50 with K562 [1] is 1.8 nM; in the data set on BaF3 [2], above 100 nM; in the data set on KU812 cell line it was 1.8 nM; with Jurkat, above 1000 nM; in the data set with U-937, above 1000 nM; with BaF3 [3], 11.8 nM.

As for `Cc1ccc(-c2nc3ccc(CN4CCN(C)CC4)cc3[nH]2)cc1C#Cc1ccc(NC2CCC2)nn1`, in the data set on BaF3 [4], the viability at 100 µM is 110%.

For the molecule `CN1CCN(Cc2ccc3nc(-c4ccc(Cl)c(C#Cc5ccc(NC6CCC6)nn5)c4)[nH]c3c2)CC1`, in the data set with BaF3 [4], the viability at 100 µM is 97.4%.

What is called AUC(0-inf) is the area under the concentration-time curve extrapolated to infinity. The term Cmax denotes the peak of the concentration-time curve. As a reminder, the half-life is the time in which the quantity being followed falls by half. A lower half-life goes with rapid decline. For orientation: Tmax means the time from dosing to the highest level. As a reminder, the clearance is a measure of how efficiently the substance is removed, as volume per time. Low readings indicate a low capacity for elimination, high ones a high capacity for elimination. By AUC(0-t) is commonly meant exposure summed from dosing to a finite time, without extrapolation to infinity. High values mean high exposure, low ones low exposure. The term MRT denotes the average time that molecules of a dose stay in the body. Usually bioavailability stands for dose-corrected exposure relative to a reference, in per cent. A lower bioavailability goes with poor availability. Regarding `Cc1ccc(C(=O)Nc2ccc(CN3CCN(C)CC3)c(C(F)(F)F)c2)cc1C#Cc1cnc2cccnn12` [PONATINIB], the area under the curve AUC(0-inf) came to 528 ng·h/mL in [5] and 432 ng·h/mL in [19]. Moreover, the results for the Cmax in [6] and in [16] were 270 ng/mL and 70 ng/mL, respectively. Also, the values for the half-life in data set [7] and in [15] were 2.84 h and 3.28 h, respectively. Besides, the Tmax in data set [8] was 4.8 min; in [21], 1.5 h. Further, the viability at 100 µM in the data set on BaF3 [4] came out at 2.8%. In data set [9], the clearance is 161 mL/min/kg. Also, the inhibition in vivo at 5 mg/kg in the data set with BaF3 [10] worked out at 53%. The 50% inhibitory concentration (IC50) was 0.1 nM in the data set on KU812 cell line; 295 nM in the data set on Jurkat; 246 nM in the data set with U-937; 0.9 nM in the data set on BaF3 [3]; 10 nM in the data set with K562 [18]. In addition, the AUC(0-t) at 24 h worked out at 497 ng·h/mL in data set [11] and 363 ng·h/mL in data set [14]. Also, the MRT in [12] was found to be 4.29 h; in data set [13] it was 5.25 h. Also, the Vd in [17] is 41 L/kg. Also, the bioavailability in data set [20] came to 27%.

`Cc1ccc(C(=O)Nc2ccc3c(c2)C(F)(F)C(N2CCN(C)CC2)C3)cc1C#Cc1cnc2cccnn12` (stereo unspecified): the viability at 100 µM in the data set on BaF3 [4] is 91.5%.

For the molecule `Cc1ccc(C(=O)Nc2ccc3c(c2)C(F)(F)C[C@@H]3N2CCN(C)CC2)cc1C#Cc1cnc2cccnn12.Cl`, the Activity result in data set [22] is listed as “Non-Toxic”.

Regarding `CN1CCN(Cc2ccc3nc(-c4ccc(Cl)c(C#Cc5cnc(NC6CC6)nc5)c4)[nH]c3c2)CC1`, the viability at 100 µM in the data set on BaF3 [4] amounted to 105%.

For `Cc1ccc(-c2nc3ccc(CN4CCN(C)CC4)cc3[nH]2)cc1C#Cc1cnc2cccnn12`, the viability at 100 µM in the data set with BaF3 [4] worked out at 84.5%.

For `Cc1ccc(-c2nc3ccc(CN4CCN(C)CC4)cc3[nH]2)cc1C#Cc1ccc(NC(C)C)nn1`, the viability at 100 µM in the data set on BaF3 [4] was 96.5%.

Regarding `Cc1ccc(NC(=O)c2ccc(CN3CCN(C)CC3)cc2)cc1Nc1nccc(-c2cccnc2)n1` [IMATINIB], the IC50 in the data set on K562 [1] was 82.9 nM; with BaF3 [2], above 100 nM; in the data set with KU812 cell line it was 51.3 nM; in the data set with Jurkat it was above 1000 nM; with U-937, above 1000 nM; in the data set on BaF3 [3], above 100 nM.

As for `CN1CCN(Cc2ccc(NC(=O)N3CCC(C#Cc4cnc5cccnn45)C3)cc2C(F)(F)F)CC1` (stereo unspecified), in the data set on BaF3 [4], the viability at 100 µM is 91.9%.

For `CN1CCN(Cc2ccc3nc(-c4ccc(Cl)c(C#Cc5ccc(NC6CC6)nn5)c4)[nH]c3c2)CC1`, the viability at 100 µM in the data set on BaF3 [4] was 74.8%.

Take `CC(C)Nc1ccc(C#Cc2cc(-c3nc4ccc(CN5CCN(C)CC5)cc4[nH]3)ccc2Cl)nn1`: the viability at 100 µM with BaF3 [4] is 100%.

Turning to `Cc1ccc(-c2nc3ccc(CN4CCN(C)CC4)cc3[nH]2)cc1C#Cc1cnc(NC2CC2)nc1`, the viability at 100 µM in the data set on BaF3 [4] came out at 90.4%.

For `Cc1ccc(C(=O)Nc2ccc3c(c2)C(F)(F)C[C@@H]3N2CCN(C)CC2)cc1C#Cc1cnc(NC2CC2)nc1`, the IC50 in the data set on K562 [1] came out at 0.6 nM; with BaF3 [2] it was 12.4 nM; in the data set with KU812 cell line it was 0.2 nM; in the data set on Jurkat it was 280 nM; in the data set with U-937, 165 nM; in the data set on BaF3 [3] it was 3.5 nM.

On to `CN1CCN(Cc2ccc3nc(-c4ccc(Cl)c(C#Cc5cnc6cccnn56)c4)[nH]c3c2)CC1`, for which, in the data set with BaF3 [4], the viability at 100 µM is 94.5%.

For `Cc1cn(-c2ccc3nc(-c4ccc(C)c(C#Cc5cnc6cccnn56)c4)[nH]c3c2)cn1`, the viability at 100 µM in the data set on BaF3 [4] was 94.1%.

Consider `Cc1ccc(C(=O)Nc2ccc3c(c2)C(F)(F)C[C@H]3N2CCN(C)CC2)cc1C#Cc1cnc(NC2CC2)nc1`, for which the IC50 in the data set on K562 [1] was 10.4 nM; in the data set with BaF3 [2], above 100 nM; in the data set on KU812 cell line, 5.2 nM; with Jurkat, 400 nM; with U-937 it was 465 nM; with BaF3 [3] it was 62.5 nM.

`CN1CCN(Cc2ccc(NC(=O)N3CCCC(C#Cc4cnc5cccnn45)C3)cc2C(F)(F)F)CC1` (stereo unspecified): the viability at 100 µM with BaF3 [4] is 84.3%.

`Cc1ccc(-c2nc3ccc(CN4CCN(C)CC4)cc3[nH]2)cc1C#Cc1ccc(NC2CC2)nn1`: the viability at 100 µM in the data set on BaF3 [4] is 88.9%.
